Here are results for two molecules from PMC9525273 (Nature Communications, 2022).

Series [1] deals with PfATP4-mutant P. falciparum lines and their parents. To be noted: cited from earlier work.
The subject of series [2] is isolated Dd2-Polδ P. falciparum trophozoites. Nature of the series: [Na+]cyt measurement (SBFI), Na+ dysregulation. Further details: Final [Na+]cyt reached: unit not given here. It counts as cell-based, Plasmodium falciparum. To be noted: for Final [Na+]cyt reached: Dd2-Polδ; for IC50: Plasmodium falciparum. The procedure:
The ratio of the fluorescence intensity recorded at 340 nm and 380 nm (with an emission wavelength of 515 nm) was converted to [Na^+]cyt using a calibration procedure that entailed suspending parasites in solutions of varying [Na^+] containing ionophores. Fluorescence measurements and calibrations were performed at 37 °C, either with individual 1 mL suspensions using a PerkinElmer LS 50B fluorescence spectrometer (for resting [Na^+]cyt measurements for which the data are shown in Supplementary Fig. 7) or in 96-well plates using a Tecan Infinite M1000 PRO plate reader with i-control (version 1.12) software (all other [Na^+]cyt measurements).

The conditions of series [3]: clinical trials, sustained periods; cited from earlier work.
The subject of series [4] is MMV665949-selected Culture 1 (from Dd2-Polδ; not cloned). Nature of the series: P. falciparum proliferation assay (72 h, fluorescent DNA-intercalating dye). Type of series: cell-based, Plasmodium falciparum. To be noted: Plasmodium falciparum, DD2; MMV665949-selected Culture 1; mean ± SEM, n = 3; read-out: IC50 value. Here is the method: (§1) For experiments with all other parasites, the effects of compounds of interest on parasite proliferation was measured in 96-well plates containing serial dilutions of the compounds in culture medium, with a fluorescent DNA-intercalating dye used to detect surviving parasites. The assays were initiated with erythrocytes infected with predominantly ring-stage parasites, and the starting parasitaemia and haematocrit were both 1%. […] Fluorescence was measured using a FLUOstar OPTIMA plate reader (BMG LABTECH), with OPTIMA version 2.20R2 and MARS Data Analysis Software version 3.01 R2 (BMG LABTECH).

Series [5] relates to cipargamin-selected culture A (from Dd2-PfATP4^T418N,P990R). Described as above. Type of series: cell-based. The conditions noted are these: Plasmodium falciparum, culture A at end of drug-exposure period, mean ± SEM, n = 3. The procedure: as §1
In series [6] the test system is cipargamin-selected culture B (from Dd2-PfATP4^T418N,P990R). The series is described as above. Type of series: cell-based. To be noted: Plasmodium falciparum, culture B at end of drug-exposure period, mean ± SEM, n = 3. Here is the method: as §1
Another series has as its system NF54^G358S-3 parasites. The experiment in a line: P. falciparum proliferation assay (72 h, flow cytometry, SYBR Green I/MitoTracker). It counts as cell-based. To be noted: Plasmodium falciparum, NF54G358S-3, mean ± SEM, n = 3. Here is the method: Two types of parasite proliferation assays were employed in this study, with both yielding highly consistent results. For the NF54-based lines and Dd2-B2-PfATP4^G358S and its parent, assays were initiated with cultures containing predominantly ring-stage parasites with a parasitaemia of 0.3% and a haematocrit of 1%. All assays using NF54 were performed in culture media containing 10% O + human serum. The duration of the assays was 72 h and the concentration of DMSO was <0.5% (v/v). Serial dilutions of the test compounds were performed using a Tecan D300e digital dispenser, with parasite cultures added manually. Parasite survival was assessed by flow cytometry on an Intellicyt iQue3 (Essen Bioscience), with 1× SYBR Green I (Invitrogen) and 200 nM MitoTracker Deep Red FM (Invitrogen) used to stain the nucleus and the mitochondria in live parasites, respectively. The gating strategy used to quantify parasite survival, performed using FlowJo version 10 (FlowJo LLC.), is illustrated in Supplementary Fig. 9. IC50 and IC90 values were calculated by linear interpolation of the dose-response data.

Where [7] appears, read: DD2, 1.5 h, pH 7.1, Dd2-Polδ, ~90 min exposure, 37 °C, pH 7.1, mean ± SEM, read-out: IC50 for Na+ dysregulation.
Setting [8] is: DD2, Dd2-Polδ, MEAN, source data of Table 1 (nM there), read-out: IC50 for Na+ dysregulation, MEAN.

Where “and” joins values, the source holds several entries; their conditions need not be identical. Equal values may be shown once. Read-outs that look alike come from different tables or passages of the source.

Regarding `N#Cc1cc(NC(=O)[C@H]2c3ccccc3C(=O)N(CC(F)(F)F)[C@@H]2c2cccnc2)ccc1F` [(+)-SJ733], the half-maximal inhibitory concentration (IC50) in series [1] (genetically engineered parasites bearing L350H in PfATP4) is 3500 nM; in series [1] (genetically engineered parasites bearing P412T in PfATP4) it was 10000 nM; in series [1] (parental wild-type parasites), 75 nM; in series [2] (setting [7]), 55 ± 15 nM; in series [2] (setting [8]) it was 55 nM. In addition, the “Final [Na+]cyt reached” value is 24.0 in series [2] ([(+)-SJ733] 9.8 nM, MEAN); 33.0 in series [2] ([(+)-SJ733] 19.5 nM, MEAN); 53.8 in series [2] ([(+)-SJ733] 39.1 nM, MEAN); 78.4 in series [2] ([(+)-SJ733] 78.1 nM, MEAN); 97.5 in series [2] ([(+)-SJ733] 156.3 nM, MEAN); 122.9 and 77.5 and 89.5 and 99.9 in series [2] ([(+)-SJ733] 156.3 nM, single experiments). The “Final [Na+]cyt reached” value in series [2] ([(+)-SJ733] 312.5 nM, MEAN) is 102.1; in series [2] ([(+)-SJ733] 312.5 nM, single experiments), 131.1 and 85.2 and 96.4 and 95.7; in series [2] ([(+)-SJ733] 625 nM, MEAN) it was 112.5; in series [2] ([(+)-SJ733] 625 nM, single experiments), 132.7 and 104.6 and 109.2 and 103.6; in series [2] ([(+)-SJ733] 2500 nM, MEAN), 112.4; in series [2] ([(+)-SJ733] 2500 nM, single experiments), 123.5 and 114.1 and 104.4 and 107.6. In addition, the “Final [Na+]cyt reached” value is 111.0 in series [2] ([(+)-SJ733] 5000 nM, MEAN); 138.3 and 95.8 and 115.2 and 94.7 in series [2] ([(+)-SJ733] 5000 nM, single experiments); 115.2 in series [2] ([(+)-SJ733] 10000 nM, MEAN); 139.1 and 108.5 and 119.1 and 94.2 in series [2] ([(+)-SJ733] 10000 nM, single experiments); 108.1 in series [2] ([(+)-SJ733] 20000 nM, MEAN); 139.5 and 98.0 and 111.1 and 84.0 in series [2] ([(+)-SJ733] 20000 nM, single experiments). Moreover, the “difference in potency between the drugs” value in series [2] (vs cipargamin, [Na+]cyt assays (P. falciparum, T. gondii) and P. falciparum proliferation assays) is more than 6 fold.

`C[C@H]1Cc2c([nH]c3cc(Cl)c(F)cc23)[C@@]2(N1)C(=O)Nc1ccc(Cl)cc12` [Cipargamin]: the “concentration reached in human plasma” value in series [3] is given as “supramicromolar concentrations”. Besides, the concentration for half-maximal inhibition (IC50) in series [4] came to 1.42 ± 0.3 nM; in series [5], 5900 ± 200 nM; in series [6] it was 6200 ± 200 nM; in series [2] (setting [7]) it was 8.4 ± 3 nM; in series [2] (setting [8]), 8.38 nM; with NF54^G358S-3 parasites, 2200 ± 700 nM. Also, the “Final [Na+]cyt reached” value in series [2] ([cipargamin] 0.06 nM, MEAN) turned out to be 13.0; in series [2] ([cipargamin] 0.12 nM, MEAN) it was 12.3; in series [2] ([cipargamin] 0.244 nM, MEAN), 15.5; in series [2] ([cipargamin] 0.5 nM, MEAN) it was 26.2; in series [2] ([cipargamin] 1.0 nM, MEAN) it was 27.3; in series [2] ([cipargamin] 2.0 nM, MEAN), 45.7. Also, the “Final [Na+]cyt reached” value was 57.4 in series [2] ([cipargamin] 3.9 nM, MEAN); 88.5 in series [2] ([cipargamin] 7.8 nM, MEAN); 98.7 in series [2] ([cipargamin] 15.6 nM, MEAN); 113.1 in series [2] ([cipargamin] 31.3 nM, MEAN); 115.1 in series [2] ([cipargamin] 62.5 nM, MEAN); 78.0 and 146.2 and 96.4 and 129.7 and 125.5 in series [2] ([cipargamin] 62.5 nM, single experiments). The “Final [Na+]cyt reached” value is 115.9 in series [2] ([cipargamin] 250 nM, MEAN); 94.4 and 105.7 and 130.4 and 132.9 in series [2] ([cipargamin] 250 nM, single experiments).
